Laboratory results taken from patent US9416126B2, “Compounds inhibiting leucine-rich repeat kinase enzyme activity” (Merck Sharp & Dohme Corp., priority 2013, dated 2016).

molecular target: LRRK2(G2019S mutation, GST-LRRK2(amino acids 970-2527)) (Homo sapiens (Human), UniProt Q5S007, G2019S); assay: LRRK2 Km ATP LanthaScreen Assay; type: biochemical; conditions: Km ATP (184 μM ATP solution), G2019S LRRK2, mean IC50
Method: Unless otherwise noted, all LRRK2 IC50 data presented in tables refers to the LRRK2 Km ATP LanthaScreen™ Assay that is described in the Biological Assay section.
The data presented for the 5 mM and Km ATP LanthaScreen™ Assay represents mean IC50 values based on several test results and may have reasonable. deviations depending on the specific conditions and reagents used. Reagents for the LRRK2 5 mM and Km ATP LanthaScreen™ Assay were purchased from Life Technologies Corporation.
LRRK2 Km ATP LanthaScreen™ Assay
a) 400 nl of a 1:2.15 serial dilution of test compound(98 μM top assay concentration) is spotted via Labcyte Echo to certain wells in a 384 well black, untreated plate. Control wells contain 400 nl of either DMSO or 400 nl of a known inhibitor in DMSO.
b) 10 μl of a 2.5 nM LRRK2(G2019S mutation, GST-LRRK2(amino acids 970-2527)) enzyme solution in 1× assay buffer(50 mM Tris pH 8.5, 10 mM MgCl2, 0.01% Brij-35, 1 mM EGTA, 2 mM DTT, 0.05 mM NaVO4) is added to all wells.
c) A 30 minute room temperature incubation is followed by addition of 10 μl of 800 nM fluorescein labeled LRRKtide peptide substrate and 184 μM ATP solution in 1× assay buffer to all wells.
d) After a 60 minute room temperature incubation, 20 μl of TR-FRET Dilution Buffer(Invitrogen PV3756B) containing 4 nM Tb-labeled anti-phospho LRRKtide antibody and 20 mM EDTA is added to all wells.
e) Plates are incubated at room temperature for 1 hour and read on an Envision™ multi-mode plate reader with LanthaScreen™ settings. Results are analysed using Assay Data Analyzer.

LRRK2(G2019S mutation, GST-LRRK2(amino acids 970-2527)), sequence (Q5S007 970-2527 G2019S): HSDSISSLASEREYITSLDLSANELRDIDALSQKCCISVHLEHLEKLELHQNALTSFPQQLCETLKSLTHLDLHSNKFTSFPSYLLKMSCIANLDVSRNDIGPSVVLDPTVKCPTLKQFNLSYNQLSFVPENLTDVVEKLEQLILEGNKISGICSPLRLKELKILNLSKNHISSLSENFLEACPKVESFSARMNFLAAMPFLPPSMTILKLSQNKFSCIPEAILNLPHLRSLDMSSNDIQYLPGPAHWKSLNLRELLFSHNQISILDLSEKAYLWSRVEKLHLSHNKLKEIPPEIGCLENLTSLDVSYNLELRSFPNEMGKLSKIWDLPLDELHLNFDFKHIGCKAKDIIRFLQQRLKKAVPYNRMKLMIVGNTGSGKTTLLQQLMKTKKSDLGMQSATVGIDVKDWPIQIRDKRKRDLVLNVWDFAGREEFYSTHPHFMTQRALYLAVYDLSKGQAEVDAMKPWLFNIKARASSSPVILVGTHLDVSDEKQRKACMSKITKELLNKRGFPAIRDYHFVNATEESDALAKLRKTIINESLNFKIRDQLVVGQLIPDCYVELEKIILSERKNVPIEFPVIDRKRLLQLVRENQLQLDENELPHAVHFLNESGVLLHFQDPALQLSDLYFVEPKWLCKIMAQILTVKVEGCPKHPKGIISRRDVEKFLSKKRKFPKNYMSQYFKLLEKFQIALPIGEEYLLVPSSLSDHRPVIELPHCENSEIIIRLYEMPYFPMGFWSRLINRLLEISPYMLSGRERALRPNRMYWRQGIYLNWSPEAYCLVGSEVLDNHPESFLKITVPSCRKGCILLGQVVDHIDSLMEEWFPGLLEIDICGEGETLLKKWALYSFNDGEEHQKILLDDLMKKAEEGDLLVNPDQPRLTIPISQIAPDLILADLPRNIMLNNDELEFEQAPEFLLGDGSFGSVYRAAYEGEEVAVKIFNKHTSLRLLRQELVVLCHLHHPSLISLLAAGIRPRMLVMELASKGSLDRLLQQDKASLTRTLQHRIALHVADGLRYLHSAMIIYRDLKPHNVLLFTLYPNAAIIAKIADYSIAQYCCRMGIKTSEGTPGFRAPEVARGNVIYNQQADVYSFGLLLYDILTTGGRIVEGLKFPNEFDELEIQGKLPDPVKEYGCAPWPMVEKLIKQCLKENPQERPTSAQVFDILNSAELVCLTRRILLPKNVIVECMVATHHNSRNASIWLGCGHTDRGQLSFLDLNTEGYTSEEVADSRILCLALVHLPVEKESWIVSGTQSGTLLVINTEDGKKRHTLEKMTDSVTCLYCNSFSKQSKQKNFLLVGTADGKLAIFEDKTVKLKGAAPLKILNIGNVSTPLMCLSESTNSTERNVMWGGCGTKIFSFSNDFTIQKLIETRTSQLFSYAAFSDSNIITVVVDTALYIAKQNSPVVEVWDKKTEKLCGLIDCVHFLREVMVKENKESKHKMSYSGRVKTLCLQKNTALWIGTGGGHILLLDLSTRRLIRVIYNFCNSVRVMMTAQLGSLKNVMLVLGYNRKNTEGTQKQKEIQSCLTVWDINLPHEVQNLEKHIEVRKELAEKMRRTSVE

| SMILES | IC50 |
| --- | --- |
| CC(C)Oc1cc2c(-c3cc(N4CCN(C(C)C)C(=O)C4)ncn3)n[nH]c2cc1F [Example D69] | 3.09 nM |
| CC(C)Oc1cc2c(-c3cc(N4CCN(C)C(=O)C4)ncn3)n[nH]c2cc1F [Example D70] | 2.19 nM |
| COCCN1CCN(c2cc(-c3n[nH]c4cc(F)c(OC(C)C)cc34)ncn2)CC1=O [Example D71] | 1.63 nM |
| CC(C)Oc1cc2c(-c3cc(N4C[C@@H](C)N(C)[C@@H](C)C4)ncn3)n[nH]c2cc1F [Example D72] | 1.33 nM |
| COc1ccc2[nH]nc(-c3cc(N4C[C@H](F)[C@@H](F)C4)ncn3)c2c1 [Example E2] | 68.6 nM |
| COc1ccc2[nH]nc(-c3cc(N4C[C@@H](C)O[C@@H](C)C4)ncn3)c2c1 [Example E3] | 29.3 nM |
| COc1ccc2[nH]nc(-c3cc(N4CCN(S(C)(=O)=O)CC4)ncn3)c2c1 [Example E4] | 35.4 nM |
| COc1ccc2[nH]nc(-c3cc(N4CCN(C(C)=O)CC4)ncn3)c2c1 [Example E5] | 74.5 nM |
| COc1ccc2[nH]nc(-c3cc(N4CC5CCC(C4)O5)ncn3)c2c1 [Example E6] | 148 nM |
| COc1ccc2[nH]nc(-c3cc(N4CCN(C)CC4)ncn3)c2c1 [Example E7] | 28.2 nM |
| CCN1CCN(c2cc(-c3n[nH]c4ccc(OC)cc34)ncn2)CC1 [Example E8] | 24.3 nM |
| COc1ccc2[nH]nc(-c3cc(N4CCN(C5CC5)CC4)ncn3)c2c1 [Example E9] | 25.9 nM |
| COc1ccc2[nH]nc(-c3cc(N4CCNC(=O)C4)ncn3)c2c1 [Example E10] | 101 nM |
| CCN1CCN(c2cc(-c3n[nH]c4ccc(OC)cc34)ncn2)CC1=O [Example E11] | 78.3 nM |
| COc1ccc2[nH]nc(-c3cc(N4CCO[C@H](C)C4)ncn3)c2c1 [Example E12] | 28.5 nM |
| COc1ccc2[nH]nc(-c3cc(N4CCO[C@@H](C)C4)ncn3)c2c1 [Example E13] | 76.9 nM |
| CCOc1ccc2[nH]nc(-c3cc(N4CCN(S(C)(=O)=O)CC4)ncn3)c2c1 [Example F1] | 15.4 nM |
| CCOc1ccc2[nH]nc(-c3cc(N4C[C@@H](C)O[C@@H](C)C4)ncn3)c2c1 [Example F2] | 12.8 nM |
| CCOc1ccc2[nH]nc(-c3cc(N4C[C@H](F)[C@@H](F)C4)ncn3)c2c1 [Example F3] | 26.6 nM |
| CCOc1ccc2[nH]nc(-c3cc(N4CCN(C)CC4)ncn3)c2c1 [Example F4] | 26.9 nM |
| CCOc1ccc2[nH]nc(-c3cc(N4CCN(C5CC5)CC4)ncn3)c2c1 [Example F5] | 16.7 nM |
| CCOc1ccc2[nH]nc(-c3cc(N4CCNC(=O)C4)ncn3)c2c1 [Example F6] | 63.9 nM |
| CCOc1ccc2[nH]nc(-c3cc(N4CCN(C)C(=O)C4)ncn3)c2c1 [Example F7] | 37.1 nM |
| CCOc1ccc2[nH]nc(-c3cc(N4CCN(CC)CC4)ncn3)c2c1 [Example F8] | 12.6 nM |
| CCOc1ccc2[nH]nc(-c3cc(N4CCN(CC)C(=O)C4)ncn3)c2c1 [Example F9] | 16.7 nM |

| SMILES | IC50 |
| --- | --- |
| CCOc1ccc2[nH]nc(-c3cc(N4CC5CCC(C4)O5)ncn3)c2c1 [Example F10] | 32.7 nM |
| CCOc1ccc2[nH]nc(-c3cc(N4CCN(C(C)=O)CC4)ncn3)c2c1 [Example F11] | 18 nM |
| CCOc1ccc2[nH]nc(-c3cc(N4CCO[C@H](C)C4)ncn3)c2c1 [Example F12] | 10.5 nM |
| CCOc1ccc2[nH]nc(-c3cc(N4CCO[C@@H](C)C4)ncn3)c2c1 [Example F13] | 41.2 nM |
| COCCOc1ccc2[nH]nc(-c3cc(N4CCN(S(C)(=O)=O)CC4)ncn3)c2c1 [Example G1] | 64.7 nM |
| COCCOc1ccc2[nH]nc(-c3cc(N4C[C@@H](C)O[C@@H](C)C4)ncn3)c2c1 [Example G2] | 76.6 nM |
| COCCOc1ccc2[nH]nc(-c3cc(N4C[C@H](F)[C@@H](F)C4)ncn3)c2c1 [Example G3] | 138 nM |
| COCCOc1ccc2[nH]nc(-c3cc(N4CCN(C)CC4)ncn3)c2c1 [Example G4] | 67.2 nM |
| COCCOc1ccc2[nH]nc(-c3cc(N4CCN(C5CC5)CC4)ncn3)c2c1 [Example G5] | 97 nM |
| COCCOc1ccc2[nH]nc(-c3cc(N4CCNC(=O)C4)ncn3)c2c1 [Example G6] | 136 nM |
| COCCOc1ccc2[nH]nc(-c3cc(N4CCN(C)C(=O)C4)ncn3)c2c1 [Example G7] | 69 nM |
| CCN1CCN(c2cc(-c3n[nH]c4ccc(OCCOC)cc34)ncn2)CC1 [Example G8] | 97 nM |
| CCN1CCN(c2cc(-c3n[nH]c4ccc(OCCOC)cc34)ncn2)CC1=O [Example G9] | 107 nM |
| COCCOc1ccc2[nH]nc(-c3cc(N4CCO[C@H](C)C4)ncn3)c2c1 [Example G10] | 42.8 nM |
| COCCOc1ccc2[nH]nc(-c3cc(N4CCO[C@@H](C)C4)ncn3)c2c1 [Example G11] | 101 nM |
| COCCOc1ccc2[nH]nc(-c3cc(N4CC5CCC(C4)O5)ncn3)c2c1 [Example G12] | 154 nM |
| COCCOc1ccc2[nH]nc(-c3cc(N4CCN(C(C)=O)CC4)ncn3)c2c1 [Example G13] | 128 nM |
| COC[C@@H](C)Oc1ccc2[nH]nc(-c3cc(N4CCOCC4)ncn3)c2c1 [Example H1] | 56.2 nM |
| COC[C@@H](C)Oc1ccc2[nH]nc(-c3cc(N4C[C@@H](C)O[C@@H](C)C4)ncn3)c2c1 [Example H2] | 39.1 nM |
| COC[C@@H](C)Oc1ccc2[nH]nc(-c3cc(N4CCO[C@H](C)C4)ncn3)c2c1 [Example H3] | 35.5 nM |
| COC[C@H](C)Oc1ccc2[nH]nc(-c3cc(N4C[C@@H](C)O[C@@H](C)C4)ncn3)c2c1 [Example H5] | 1.7 nM |
| COC[C@H](C)Oc1ccc2[nH]nc(-c3cc(N4CCN(S(C)(=O)=O)CC4)ncn3)c2c1 [Example H6] | 4.5 nM |
| COC[C@H](C)Oc1ccc2[nH]nc(-c3cc(N4CCN(C)CC4)ncn3)c2c1 [Example H7] | 2.08 nM |
| COC[C@H](C)Oc1ccc2[nH]nc(-c3cc(N4CC5CCC(C4)O5)ncn3)c2c1 [Example H8] | 9.93 nM |
| COC[C@H](C)Oc1ccc2[nH]nc(-c3cc(N4CCC5(CCC(=O)N5)CC4)ncn3)c2c1 [Example H9] | 4.36 nM |

| SMILES | IC50 |
| --- | --- |
| COC[C@H](C)Oc1ccc2[nH]nc(-c3cc(N4CCC5(CC4)CC(=O)N(C)C5)ncn3)c2c1 [Example H10] | 2.87 nM |
| COC[C@H](C)Oc1ccc2[nH]nc(-c3cc(N4CCC5(CC4)CNC(=O)C5)ncn3)c2c1 [Example H11] | 2.85 nM |
| COC[C@H](C)Oc1ccc2[nH]nc(-c3cc(N4CC[C@@H](OC)C4)ncn3)c2c1 [Example H12] | 4.8 nM |
| COC[C@H](C)Oc1ccc2[nH]nc(-c3cc(N4CC[C@H](OC)C4)ncn3)c2c1 [Example H13] | 5.27 nM |
| COC[C@H](C)Oc1ccc2[nH]nc(-c3cc(N4CCC5(CCCO5)CC4)ncn3)c2c1 [Example H14] | 2.02 nM |
| COC[C@H](C)Oc1ccc2[nH]nc(-c3cc(N4CCC5(CCN(C)C5=O)CC4)ncn3)c2c1 [Example H15] | 3.71 nM |
| COC[C@H](C)Oc1ccc2[nH]nc(-c3cc(N4CCC5(CCNC5=O)CC4)ncn3)c2c1 [Example H16] | 2.83 nM |
| COC[C@H](C)Oc1ccc2[nH]nc(-c3cc(N4CCO[C@H](C)C4)ncn3)c2c1 [Example H17] | 2.79 nM |
| c1cnc(-c2ccc3[nH]nc(-c4cc(N5CCOCC5)ncn4)c3c2)cn1 [Example I1] | 34.7 nM |
| CS(=O)(=O)N1CCN(c2cc(-c3n[nH]c4ccc(-c5cnccn5)cc34)ncn2)CC1 [Example I2] | 19.2 nM |
| CC(C)Oc1ccc2[nH]nc(-c3cc(N4CCC(O)CC4)ncn3)c2c1 [Example J1] | 5.9 nM |
| CC(C)Oc1ccc2[nH]nc(-c3cc(N4CCN(CCO)CC4)ncn3)c2c1 [Example J2] | 7.4 nM |
| CC(C)Oc1ccc2[nH]nc(-c3cc(N4CCCCC4)ncn3)c2c1 [Example J3] | 10.6 nM |
| CC(C)Oc1ccc2[nH]nc(-c3cc(N4CCC4)ncn3)c2c1 [Example J4] | 7.9 nM |
| CC(C)Oc1ccc2[nH]nc(-c3cc(N4CCCC4)ncn3)c2c1 [Example J5] | 13.9 nM |
| CC(C)Oc1ccc2[nH]nc(-c3cc(N4C[C@@H](C)O[C@@H](C)C4)ncn3)c2c1 [Example J6] | 7.8 nM |
| CC(C)Oc1ccc2[nH]nc(-c3cc(N4C[C@H](O)[C@@H](N(C)C)C4)ncn3)c2c1 [Example J7] | 15.3 nM |
| CO[C@H]1CN(c2cc(-c3n[nH]c4ccc(OC(C)C)cc34)ncn2)C[C@@H]1O [Example J8] | 18.6 nM |
| CC(C)Oc1ccc2[nH]nc(-c3cc(N4CCO[C@H](C)C4)ncn3)c2c1 [Example J9] | 9.2 nM |
| CC(C)Oc1ccc2[nH]nc(-c3cc(N4C[C@H](F)[C@@H](F)C4)ncn3)c2c1 [Example J10] | 11.1 nM |
| CC(C)Oc1ccc2[nH]nc(-c3cc(N4CCCN(S(C)(=O)=O)CC4)ncn3)c2c1 [Example J11] | 51.3 nM |
| CC(C)Oc1ccc2[nH]nc(-c3cc(N4CC(n5cccn5)C4)ncn3)c2c1 [Example J12] | 22.6 nM |
| CC(C)Oc1ccc2[nH]nc(-c3cc(N4CC[S+]([O-])CC4)ncn3)c2c1 [Example J13] | 21 nM |
